Reference: patent publication US12480163B2, “Compositions and methods for identification assessment, prevention, and treatment of Ewing sarcoma using TP53 dependency biomarkers and modulators” (Dana-Farber Cancer Institute, Inc., priority 2018, dated 2025)
“Also recorded” adds a separate entry of the source.

Biological target: T1, Wip1 (Homo sapiens, UniProt O15297)
T1 construct: Whole-cell lysates were extracted in cell lysis buffer (Cell Signaling); endogenous in cells; host or cells: TP53 wild-type Ewing sarcoma cell lines
T1 sequence (O15297 1-605): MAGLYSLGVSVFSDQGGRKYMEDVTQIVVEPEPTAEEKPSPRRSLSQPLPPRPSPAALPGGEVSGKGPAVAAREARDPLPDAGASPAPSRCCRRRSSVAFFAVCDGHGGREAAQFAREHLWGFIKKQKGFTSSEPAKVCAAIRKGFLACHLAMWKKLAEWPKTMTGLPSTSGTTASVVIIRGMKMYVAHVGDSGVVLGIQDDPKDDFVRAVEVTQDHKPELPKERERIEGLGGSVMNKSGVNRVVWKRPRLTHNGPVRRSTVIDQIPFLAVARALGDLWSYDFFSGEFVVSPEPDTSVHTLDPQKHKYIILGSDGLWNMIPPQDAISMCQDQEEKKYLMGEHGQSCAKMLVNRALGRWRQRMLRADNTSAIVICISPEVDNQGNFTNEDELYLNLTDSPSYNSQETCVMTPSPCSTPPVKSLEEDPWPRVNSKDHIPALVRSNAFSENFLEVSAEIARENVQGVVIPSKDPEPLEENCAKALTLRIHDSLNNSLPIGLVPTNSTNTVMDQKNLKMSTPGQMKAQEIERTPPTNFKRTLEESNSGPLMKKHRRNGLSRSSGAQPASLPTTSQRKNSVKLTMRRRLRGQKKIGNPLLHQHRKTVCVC
Experiment: Western immunoblotting of Wip1 and pSer15-p53
Type: cell-based
Settings: TC32 and CHLA258 cells, 2 d
Procedure: Whole-cell lysates were extracted in cell lysis buffer (Cell Signaling) supplemented with EDTA-free protease inhibitors and PhosSTOP™ phosphatase inhibitors (Roche). Western immunoblotting was performed using standard techniques. Primary antibodies used included anti-MDM2 (ab178938; Abcam), anti-MDM2 (86934; Cell Signaling), anti-MDM4 (A300-287A; Bethyl Laboratories), anti-p53 (2527S; Cell Signaling), anti-p21 (2946S; Cell Signaling), anti-Vinculin (18058; Abcam), anti-Wip1 (A300-664A; Bethyl Laboratories), anti-pSer15-p53 (9284; Cell Signaling), anti-USP7 (A300-033A; Bethyl Laboratories), and anti-Tubulin (cp06; CalBiochem).

CC(=O)N[C@@H](CC(C)C)C(=O)N[C@H](C(=O)N[C@@H](Cc1ccccc1)C(=O)N[C@]1(C)CCCCCCC=CCCC[C@@](C)(C(=O)N[C@@H](CO)C(=O)N[C@@H](C)C(=O)N[C@@H](C)C(N)=O)NC(=O)[C@H](CC2CCC2)NC(=O)[C@H](CCC(N)=O)NC(=O)[C@H](C)NC(=O)[C@H](Cc2c[nH]c3ccccc23)NC(=O)[C@H](Cc2ccc(O)cc2)NC(=O)[C@H](CCC(=O)O)NC1=O)[C@@H](C)O [ATSP-7041, Ac-Leu17-Thr-Phe-cyclo(R8-Glu-Tyr-Trp-Ala-Gln-Cba-S5)-Ser-Ala-Ala30-NH2]
phosphorylation of p53 at Serine 15, combination of ATSP-7041 and GSK2830371: increased phospho-Serine15-p53 protein levels; also recorded: increased the phosphorylation of p53 at Serine 15; also recorded: increases the level of pSer15 on p53 more than with either molecule alone
